Data published in paper PMC6151508, “Development of Novel Nrf2/ARE Inducers Bearing Pyrazino[2,1-a]isoquinolin Scaffold with Potent In Vitro Efficacy and Enhanced Physicochemical Properties” (Molecules : A Journal of Synthetic Chemistry and Natural …, 2017).
Converted amounts (≈) assume the structure as drawn.

Key:
[1] = MTT cell viability (cytotoxicity) assay; format: cell-based; settings: human, HCT116 cells
Description: (§1) All the derivatives were evaluated for their ability to induce ARE in HepG2-ARE-C8 cell (HepG2 cells stably transfected with a luciferase reporter) by ARE luciferase reporter assay, and they were compared to the lead compound 2. At the same time, cytotoxicity studies were performed by the MTT assay against the HCT116 cells. The results of cytotoxic activity in vitro were expressed as the IC50 [18]. Because those compounds were designed for chemoprevention, they should not be cytotoxic.
Cell viabilities were determined by using 3-[4,5-dimethylthiazol-2-yl]-2,5-diphenyltetrazolium bromide (MTT) assay. MTT was dissolved in (phosphate buffered solution) PBS to a concentration of 5 mg/mL. HCT116 cells (8 × 10^3 cells/well) were plated in 96-well plates and incubated overnight. Different concentrations of test compounds were added to each cell for 24 h at 37 °C, and the 20 μL MTT solution was added and incubated for an additional 4 h. Then, 100 μL of DMSO was added to dissolve formazan precipitate after the solution was removed. The OD value was determined at 570 nm by Elx800 absorbance microplate reader (BioTek, Winooski, VT, USA). IC50 value (concentration at which cell survival equals 50% of control) = […].

[2] = tested on: antioxidant response element (ARE); experiment: ARE luciferase reporter assay in HepG2-ARE-C8 cells; format: cell-based; settings: HepG2-ARE-C8, 12 h of treatment, mean ± SD n = 3; for fold induction at 0.1 µM / fold induction at 1 µM / fold induction at 5 µM / fold induction at 10 µM / fold induction at 50 µM / fold induction at 100 µM: read-out: ARE Inductivity in Luciferase Reporter Assay (induction fold)
Description: as §1
HepG2-ARE-C8 cells (4 × 10^4 cells/well) were incubated overnight in 96-well plates, and then treated with different concentrations of test compounds. tBHQ was used as a positive control, DMSO was used as a negative control, and the luciferase cell culture lysis reagent was used as a blank. The medium was removed after 12 h treatment. Then, the cells were harvested in the luciferase cell culture lysis reagent together with 100 μL of cold PBS. Then, centrifuging the solution and 20 μL of the supernatant was used for determining the luciferase activity. The luciferase activity was measured by a Luminoskan Ascent (Thermo Scientific, Waltham, MA, USA). The data were obtained in triplicate and expressed as fold induction over the control. Induction fold = (RLUtest − RLUblank)/(RLUDMSOcontrol − RLUblank). RLU = relative light unit l.

[3] = Parallel artificial membrane permeability assay (PAMPA by pION); settings: pH 7.4
Description: Then we evaluated the physicochemical properties of a selected series of our compounds. […] All of them were evaluated with pKa, partition coefficient (log D, pH 7.4), membrane permeability (Pe, pH 7.4) and water solubility. […] Permeability (Pe) was determined by a standard parallel artificial membrane permeability assay (PAMPA by pION).
Permeability (Pe) was determined by a standard parallel artificial membrane permeability assay (PAMPA by pION).

[4] = log D pH 7.4 by potentiometric titration (Gemini Profiler, pION); format: physicochemical
Source text: (§2) Ketoprofen and propranolol were chosen as a control.
(§3) This is a new potentiometric acid−base titration method.

[5] = pKa by potentiometric titration (Gemini Profiler, pION); format: physicochemical
Source text: as §2, §3

[6] = Water solubility by pH-metric method (pSOL model 3); format: physicochemical; settings: for solubility: water, pH 7.4, aqueous buffer, thermodynamic from solid
Source text: as §3

HCT116 cells = tested on: HCT116 cells; parameters: method as in PMID 24053646; settings: previously reported value; cited from earlier work
[7] = tested on: antioxidant response element (ARE); parameters: method as in PMID 24053646; settings: 10 μM, luciferase reporter assay; cited from earlier work
Nrf2 = experiment: Western blot of Nrf2 protein level in HCT116; format: cell-based, human; settings: HCT116, 10 μM
Source text: (§4) Compound 3g was selected to evaluate its capacity to activate the expression of Nrf2-regulated NQO1 by measuring the protein levels in HCT116 via Western Blot. […] Those data further confirmed that 3g bearing pyrido[1,2-a]pyrazin scaffold could elevate both Nrf2 and downstream proteins of Nrf2 at the cellular level.
(§5) Anti-NQO1 (sc-271116), anti-Nrf2 (BS1258) and Anti-β-actin (AP0060) antibodies were purchased from Santa Cruz Biotechnology (Santa Cruz, CA, USA) and Bioworlde (Bioworlde, Visalia, CA, USA), respectively. The isolation of cell fractions and Western blotting were performed as detailed previously. Briefly, the extracts were separated by SDS-PAGE and then electrotransferred to PVDF membranes (Perkin Elmer, Northwalk, CT, USA). Membranes were blocked with 1% BSA for 1 h followed by incubation with a primary antibody at 4 °C overnight. Then they were washed and treated with a DyLight 800 labeled secondary antibody at 37 °C for 2 h. The membranes were screened through the odyssey infrared imaging System (LI-COR, Lincoln, NE, USA).

NQO1 = experiment: Western blot of NQO1 protein level in HCT116; format: cell-based, human; settings: tBHQ at 100 μM
Source text: as §4, §5

## O=C(C=C1NCC2c3ccccc3CCN2C1=O)c1cccc(NC(=O)N2CCOCC2)c1 (centres unmarked) [Compound 1e, N-(3-(2-(4-oxo-1,6,7,11b-tetrahydro-2H-pyrazino[2,1-a]isoquinolin-3(4H)-ylidene)acetyl)phenyl)morpholine-4-carboxamide]
[1]
  IC50 at 24 h: 183 µM
[2]
  fold induction at 0.1 µM: 1.57 ± 0.05
  fold induction at 1 µM: 1.97 ± 0.2
  fold induction at 5 µM: 4.53 ± 0.28
  fold induction at 50 µM: 7.8 ± 3.94
[2]; 10 μM
  fold induction at 10 µM: 5.48 ± 0.13
[2]; 100 μM
  fold induction at 100 µM: 35 ± 3.15
[3]
  Papp: 53 ± 7.29 ×10⁻⁶ cm/s
[4]
  logD: 0.61
[5]
  pKa: 2.9
other
  melting point: 228 to 230 °C
[6]
  solubility: 46 µg/mL (≈ 103 µM)

## O=C(/C=C1\NCC2c3ccccc3CCN2C1=O)c1cccc(F)c1 (centres unmarked) [Compound 2]
[1]
  IC50 at 24 h: 165 µM
[2]
  fold induction at 0.1 µM: 1.45 ± 0.39
  fold induction at 1 µM: 6.2 ± 4.06
  fold induction at 5 µM: 16.2 ± 0.3
  fold induction at 50 µM: 7.51 ± 1.32
[2]; 10 μM
  ARE Inductivity in Luciferase Reporter Assay (induction fold): 31.17 ± 4.14 fold
  fold induction at 10 µM: 31.2
[2]; 100 μM
  fold induction at 100 µM: 12.2 ± 3.32
HCT116 cells
  IC50: > 100 µM
[7]
  induction of ARE (previously reported): 33.00 fold
[3]
  Papp: 11.7 ± 2.2 ×10⁻⁶ cm/s
[4]
  logD: 2.38
[5]
  pKa: 2.78
[6]; pH 7.4
  water solubility: 22 µg/mL (≈ 65.4 µM)
[6]
  solubility: 22 µg/mL (≈ 65.4 µM)

## O=C(C=C1NCC2c3ccccc3CCN2C1=O)C1CCC1 (centres unmarked) [Compound 2c, 3-(2-cyclobutyl-2-oxoethylidene)-1,2,3,6,7,11b-hexahydro-4H-pyrazino[2,1-a]isoquinolin-4-one]
[1]
  IC50 at 24 h: 190 µM
[2]
  fold induction at 0.1 µM: 2.96 ± 0.48
  fold induction at 1 µM: 3.04 ± 0.08
  fold induction at 5 µM: 5.73 ± 1.44
  fold induction at 50 µM: 28 ± 1.39
[2]; 10 μM
  fold induction at 10 µM: 13.3 ± 0.44
[2]; 100 μM
  fold induction at 100 µM: 29 ± 2.45
[3]
  Papp: 44 ± 5.42 ×10⁻⁶ cm/s
[4]
  logD: 1.22
[5]
  pKa: 3.02
other
  melting point: 172 to 174 °C
[6]
  solubility: 170 µg/mL (≈ 574 µM)

## O=C(C=C1NCC2CCCCN2C1=O)c1ccccc1 (centres unmarked) [Compound 3a, 3-(2-oxo-2-phenylethylidene)octahydro-4H-pyrido[1,2-a]pyrazin-4-one]
[1]
  IC50 at 24 h: > 300 µM
[2]
  fold induction at 0.1 µM: 1.2 ± 0.49
  fold induction at 1 µM: 4.09 ± 0.79
  fold induction at 5 µM: 15.8 ± 2.08
  fold induction at 50 µM: 29.9 ± 8.49
[2]; 10 μM
  fold induction at 10 µM: 16.4 ± 0.55
[2]; 100 μM
  fold induction at 100 µM: 40.6 ± 1.78
[3]
  Papp: 66.4 ± 5.08 ×10⁻⁶ cm/s
[4]
  logD: 0.98
[5]
  pKa: 3.42
other
  melting point: 164 to 166 °C
[6]
  solubility: 530 µg/mL (≈ 1960 µM)

## O=C(C=C1NCC2CCCCN2C1=O)c1cccc(F)c1 (centres unmarked) [Compound 3b, 3-(2-(3-fluorophenyl)-2-oxoethylidene)octahydro-4H-pyrido[1,2-a]pyrazin-4-one]
[1]
  IC50 at 24 h: 168 µM
[2]
  fold induction at 0.1 µM: 0.7 ± 0.35
  fold induction at 1 µM: 5.98 ± 2.31
  fold induction at 5 µM: 24.8 ± 2.67
  fold induction at 50 µM: 40 ± 0.69
[2]; 10 μM
  ARE Inductivity in Luciferase Reporter Assay (induction fold): 32.97 ± 3.68 fold
  fold induction at 10 µM: 33
[2]; 100 μM
  fold induction at 100 µM: 4.41 ± 2.89
[3]
  Papp: 54.5 ± 6 ×10⁻⁶ cm/s
[4]
  logD: 1.23
[5]
  pKa: 3.1
other
  melting point: 156 to 158 °C
[6]
  solubility: 290 µg/mL (≈ 1010 µM)

## COc1cccc(C(=O)C=C2NCC3CCCCN3C2=O)c1 (centres unmarked) [Compound 3e, 3-(2-(3-methoxyphenyl)-2-oxoethylidene)octahydro-4H-pyrido[1,2-a]pyrazin-4-one]
[1]
  IC50 at 24 h: > 300 µM
[2]
  fold induction at 0.1 µM: 1.4 ± 1.21
  fold induction at 1 µM: 1.82 ± 1.15
  fold induction at 5 µM: 6.59 ± 0.77
  fold induction at 50 µM: 9.36 ± 3.76
[2]; 10 μM
  fold induction at 10 µM: 9.16 ± 0.42
[2]; 100 μM
  fold induction at 100 µM: 1.44 ± 1.75
other
  melting point: 133 to 135 °C

## O=C(C=C1NCC2CCCCN2C1=O)c1ccc(-c2ccccc2)cc1 (centres unmarked) [Compound 3f, 3-(2-([1,1′-biphenyl]-4-yl)-2-oxoethylidene)octahydro-4H-pyrido[1,2-a]pyrazin-4-one]
[1]
  IC50 at 24 h: 184 µM
[2]
  fold induction at 0.1 µM: 2.96 ± 0.66
  fold induction at 1 µM: 2.21 ± 0.52
  fold induction at 5 µM: 3.6 ± 0.42
  fold induction at 50 µM: 2.47 ± 0.03
[2]; 10 μM
  fold induction at 10 µM: 1.76 ± 0.1
[2]; 100 μM
  fold induction at 100 µM: 2.69 ± 2.75
other
  melting point: 197 to 199 °C

## O=C(C=C1NCC2CCCCN2C1=O)c1ccco1 (centres unmarked) [Compound 3g, 3-(2-(furan-2-yl)-2-oxoethylidene)octahydro-4H-pyrido[1,2-a]pyrazin-4-one]
[1]
  IC50 at 24 h: > 300 µM
[2]
  fold induction at 0.1 µM: 0.24 ± 0.15
  fold induction at 1 µM: 1.5 ± 0.01
  fold induction at 5 µM: 6.41 ± 3.14
  fold induction at 50 µM: 41.6 ± 2.6
[2]; 10 μM
  ARE Inductivity in Luciferase Reporter Assay (induction fold): 27.01 ± 2.46 fold
  fold induction at 10 µM: 27
[2]; 100 μM
  ARE Inductivity in Luciferase Reporter Assay (induction fold): 79.74 ± 1.92 fold
  fold induction at 100 µM: 79.7
Nrf2
  Nrf2 protein level (Western blot): elevated the protein level of Nrf2
[3]
  Papp: 32.7 ± 1.92 ×10⁻⁶ cm/s
[4]
  logD: -0.34
NQO1
  NQO1 protein level (Western blot): induced by 3g in a concentration-dependent manner
[5]
  pKa: 2.08
other
  melting point: 152 to 154 °C
[6]
  solubility: 3310 µg/mL (≈ 12700 µM)

## O=C(C=C1NCC2CCCCN2C1=O)c1cccs1 (centres unmarked) [Compound 3h, 3-(2-oxo-2-(thiophen-2-yl)ethylidene)octahydro-4H-pyrido[1,2-a]pyrazin-4-one]
[1]
  IC50 at 24 h: > 300 µM
[2]
  fold induction at 0.1 µM: 2.06 ± 0.22
  fold induction at 1 µM: 2.12 ± 0.31
  fold induction at 5 µM: 8.3 ± 2.55
  fold induction at 50 µM: 28.9 ± 0.46
[2]; 10 μM
  fold induction at 10 µM: 10.5 ± 3.82
[2]; 100 μM
  fold induction at 100 µM: 1.63 ± 0.25
other
  melting point: 182 to 184 °C

## O=C(C=C1NCC2CCCCN2C1=O)c1nccs1 (centres unmarked) [Compound 3i, 3-(2-oxo-2-(thiazol-2-yl)ethylidene)octahydro-4H-pyrido[1,2-a]pyrazin-4-one]
[1]
  IC50 at 24 h: > 300 µM
[2]
  fold induction at 0.1 µM: 1.52 ± 0.87
  fold induction at 1 µM: 4.02 ± 3.05
  fold induction at 5 µM: 6.41 ± 1.48
  fold induction at 50 µM: 13.5 ± 0.8
[2]; 10 μM
  fold induction at 10 µM: 9.28 ± 0.55
[2]; 100 μM
  fold induction at 100 µM: 16.7 ± 1.39
other
  melting point: 151 to 153 °C

## O=C(C=C1NCC2CCCCN2C1=O)c1cccc2ccccc12 (centres unmarked) [Compound 3j, 3-(2-(naphthalen-1-yl)-2-oxoethylidene)octahydro-4H-pyrido[1,2-a]pyrazin-4-one]
[1]
  IC50 at 24 h: 264 µM
[2]
  fold induction at 0.1 µM: 1.7 ± 0.19
  fold induction at 1 µM: 2.34 ± 0.53
  fold induction at 5 µM: 2.54 ± 0.99
  fold induction at 50 µM: 3.85 ± 0.34
[2]; 10 μM
  fold induction at 10 µM: 3.52 ± 0.57
[2]; 100 μM
  fold induction at 100 µM: 1.96 ± 0.71
other
  melting point: 151 to 153 °C

## CC(C)(C)c1cc(O)ccc1O [tBHQ, tert-butylhydroquinone, reference compound]
[2]
  fold induction at 0.1 µM: 1 ± 0.01
  fold induction at 1 µM: 1.8 ± 0.66
  fold induction at 5 µM: 1.67 ± 0.56
  fold induction at 50 µM: 4.45 ± 1.15
[2]; 10 μM
  fold induction at 10 µM: 1.98 ± 0.29
[2]; 100 μM
  ARE Inductivity in Luciferase Reporter Assay (induction fold): 10.79 ± 3.13 fold
  fold induction at 100 µM: 10.8
NQO1
  NQO1 protein level (Western blot): induced expression of NQO1
